By Kd is commonly meant the equilibrium constant for the complex coming apart. Higher therefore signals a looser complex.

Experimental findings from patent publication US20240115557A1, “INHIBITORS OF RNA-GUIDED NUCLEASES AND USES THEREOF” (The Brigham and Women's Hospital, Inc., priority 2022, published 2024) are described below.

One assay deals with FnCpf1 (Francisella tularensis subsp. novicida, UniProt A0Q7Q2). It counts as biochemical. Particulars: 20 uM.
In assay [1] the test system is restriction endonuclease Nde1. Description: Gel cleavage specificity assay, Nde1. The class given is biochemical. To be noted: 20 uM.
In assay [2] the target is T1, SpCas9:gRNA complex (Streptococcus pyogenes serotype M1, UniProt Q99ZW2). Description: biochemical.
Assay [3] concerns the target T1, SpCas9:gRNA complex. Particulars: control without BRD7586 scaffold.
The next assay addresses SpCas9:gRNA (Streptococcus pyogenes serotype M1, UniProt Q99ZW2). Nature of the assay: Photo-crosslinking to purified SpCas9:gRNA. The class given is binding. Particulars: 1 μM probe, 1 μM SpCas9:gRNA, UV 365 nm. On the procedure: Cas9 RNP complex was formed by mixing Cas9 (1 μM) and the eGFP-targeting gRNA (1 μM) in a binding buffer (HEPES 20 mM, KCl 100 mM, pH 7.6) for 15 min. Next, BRD7586 (5 μM) was added to the mixture when competition is required (the last lane of FIG. 68B). Finally, Diazirine-BRD7586 was added (1 μM) and the mixture was incubated for 20 min at RT with a final reaction volume of 20 μL in a PCR tube. The mixture was irradiated with UV (365 nm) for 5 min on ice, then 2.5 μL of 10% RapiGest SF solution in PBS was added. Click chemistry was initiated by adding 100 μM of TAMRA-azide (Sigma #760757), 350 μM of Cu-TBTA, and 1.5 mM ascorbate with a final reaction volume of 27 μL. The reaction was conducted for 1 h at 30° C., then SDS-PAGE was performed immediately. The fluorescence gel scanning was conducted using an Azure 600 (Azure Biosystem) to detect the TAMRA fluorescence.

Another assay has as its target SpCas9 (Streptococcus pyogenes serotype M1, UniProt Q99ZW2). Nature of the assay: T7E1 assay for indels at the eGFP gene. The class given is cell-based. To be noted: U2OS.eGFP.PEST, 24 h. On the procedure: FIG. 72A-72E Validation of BRD7586 in cells FIG. 72A T7E1 assay for detecting indels at the eGFP gene. U20S.eGFP.PEST cells were nucleofected with plasmid and incubated with BRD7586 for 24 h. Blue arrowheads indicate uncleaved DNA and black arrowheads indicate cleaved DNA. FIG. 72B T7E1 for detecting indels at the eGFP gene. U20S.eGFP.PEST cells were nucleofected with RNP and incubated with BRD7586 for 24 h. Blue arrowheads indicate uncleaved DNA and black arrowheads indicate cleaved DNA FIG. 72C Inhibition of SpCas9 by BRD0539 and BRD7586 in the eGFP disruption assay using plasmid delivery method and RNP delivery method (U20S.eGFP.PEST cells, 24 h). Error bars represent SD from 3 or 4 independent experiments. […]
FIG. 75A-75E Mechanism of action studies of BRD7586 FIG. 75A Workflow of the chemoproteomics experiments using the diazirine-based photo-crosslinking probe to identify binding sites of BRD7586 on SpCas9 FIG. 75B T7E1 assay for measuring the activity of Diazirine-BRD7586. […] Blue arrowheads indicate uncleaved DNA while black arrowheads indicate cleaved DNA from the T7E1 reaction FIG. 75C Chemical structure of the acid-cleavable and isotope-coded biotin-azide used for chemoproteomics experiments FIG. 75D Structure of the peptide-compound conjugates to be detected from the mass spectrometry. […]

Sequence of FnCpf1 (A0Q7Q2 whole entry, looked up): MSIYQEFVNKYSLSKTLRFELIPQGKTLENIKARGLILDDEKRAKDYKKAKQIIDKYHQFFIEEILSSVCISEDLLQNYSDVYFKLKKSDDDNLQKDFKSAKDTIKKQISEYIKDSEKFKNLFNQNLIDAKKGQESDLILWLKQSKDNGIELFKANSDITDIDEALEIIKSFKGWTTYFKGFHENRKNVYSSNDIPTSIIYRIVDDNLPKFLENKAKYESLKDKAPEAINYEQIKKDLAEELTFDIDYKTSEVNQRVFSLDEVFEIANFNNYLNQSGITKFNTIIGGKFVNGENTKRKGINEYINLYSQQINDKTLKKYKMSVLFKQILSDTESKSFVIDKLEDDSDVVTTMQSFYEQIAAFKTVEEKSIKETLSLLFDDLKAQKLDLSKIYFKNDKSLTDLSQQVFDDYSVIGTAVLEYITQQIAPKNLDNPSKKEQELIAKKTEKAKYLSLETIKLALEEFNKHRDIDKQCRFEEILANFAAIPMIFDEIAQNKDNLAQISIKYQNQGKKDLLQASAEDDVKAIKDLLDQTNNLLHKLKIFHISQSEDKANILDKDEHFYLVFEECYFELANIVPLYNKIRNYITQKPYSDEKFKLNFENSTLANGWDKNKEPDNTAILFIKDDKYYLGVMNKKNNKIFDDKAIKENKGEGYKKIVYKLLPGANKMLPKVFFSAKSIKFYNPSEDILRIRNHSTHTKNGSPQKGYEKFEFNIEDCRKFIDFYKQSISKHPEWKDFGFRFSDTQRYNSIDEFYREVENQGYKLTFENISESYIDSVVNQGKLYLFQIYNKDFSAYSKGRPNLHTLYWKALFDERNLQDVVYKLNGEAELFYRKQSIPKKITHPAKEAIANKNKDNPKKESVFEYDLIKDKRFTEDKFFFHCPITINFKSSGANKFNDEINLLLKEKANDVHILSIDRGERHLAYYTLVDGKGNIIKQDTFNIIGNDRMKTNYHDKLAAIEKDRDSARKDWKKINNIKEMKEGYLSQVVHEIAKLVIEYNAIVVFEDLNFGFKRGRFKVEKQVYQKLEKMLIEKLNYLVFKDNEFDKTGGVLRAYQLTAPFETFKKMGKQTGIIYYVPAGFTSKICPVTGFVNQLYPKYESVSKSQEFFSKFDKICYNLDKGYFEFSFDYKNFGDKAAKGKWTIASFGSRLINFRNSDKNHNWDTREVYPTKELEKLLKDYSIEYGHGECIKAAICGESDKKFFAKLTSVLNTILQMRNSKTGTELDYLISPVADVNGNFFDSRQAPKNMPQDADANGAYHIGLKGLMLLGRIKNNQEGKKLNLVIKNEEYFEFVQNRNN
T1 sequence (Q99ZW2 whole entry, one chain of several): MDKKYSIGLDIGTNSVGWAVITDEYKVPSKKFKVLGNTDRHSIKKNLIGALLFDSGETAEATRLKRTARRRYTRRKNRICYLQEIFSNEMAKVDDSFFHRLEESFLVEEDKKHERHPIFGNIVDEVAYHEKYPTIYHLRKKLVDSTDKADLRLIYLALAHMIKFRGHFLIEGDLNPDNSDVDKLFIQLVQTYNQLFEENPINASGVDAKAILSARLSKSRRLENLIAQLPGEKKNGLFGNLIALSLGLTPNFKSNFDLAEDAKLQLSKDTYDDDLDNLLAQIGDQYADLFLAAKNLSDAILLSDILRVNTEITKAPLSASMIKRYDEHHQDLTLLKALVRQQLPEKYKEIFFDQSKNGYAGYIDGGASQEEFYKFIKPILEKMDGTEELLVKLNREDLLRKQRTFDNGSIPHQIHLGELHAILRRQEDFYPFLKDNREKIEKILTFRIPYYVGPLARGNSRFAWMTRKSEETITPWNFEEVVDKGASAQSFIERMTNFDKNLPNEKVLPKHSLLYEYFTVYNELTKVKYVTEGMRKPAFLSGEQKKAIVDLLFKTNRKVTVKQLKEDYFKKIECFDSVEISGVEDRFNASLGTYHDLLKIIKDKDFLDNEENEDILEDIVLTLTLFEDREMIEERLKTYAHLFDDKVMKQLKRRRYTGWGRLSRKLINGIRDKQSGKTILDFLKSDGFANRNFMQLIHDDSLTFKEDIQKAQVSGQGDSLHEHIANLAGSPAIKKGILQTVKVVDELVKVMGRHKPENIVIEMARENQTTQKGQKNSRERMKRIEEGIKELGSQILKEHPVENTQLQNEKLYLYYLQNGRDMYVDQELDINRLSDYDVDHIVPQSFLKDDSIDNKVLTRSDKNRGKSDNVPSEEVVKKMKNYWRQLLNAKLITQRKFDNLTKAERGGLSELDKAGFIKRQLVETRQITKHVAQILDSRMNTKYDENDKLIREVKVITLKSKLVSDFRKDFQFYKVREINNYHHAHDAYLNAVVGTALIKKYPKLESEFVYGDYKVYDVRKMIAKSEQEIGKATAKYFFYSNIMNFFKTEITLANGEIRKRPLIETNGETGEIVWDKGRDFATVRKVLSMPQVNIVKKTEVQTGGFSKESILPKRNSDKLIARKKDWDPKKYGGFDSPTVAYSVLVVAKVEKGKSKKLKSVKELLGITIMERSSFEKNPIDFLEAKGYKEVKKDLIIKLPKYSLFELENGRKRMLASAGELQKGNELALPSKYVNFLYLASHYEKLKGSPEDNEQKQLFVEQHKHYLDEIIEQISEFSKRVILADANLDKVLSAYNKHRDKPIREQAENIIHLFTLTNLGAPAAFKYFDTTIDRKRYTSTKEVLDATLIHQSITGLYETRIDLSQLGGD
Sequence of SpCas9:gRNA (Q99ZW2 whole entry): as the sequence (Q99ZW2 whole entry, one chain of several) above

Consider `CCc1cccc(-n2nnnc2N2CCN(C(=O)Nc3cccc(C)c3)CC2)c1` [Compound L378-0350], for which the “Activity against FnCpf1 in gel cleavage assay” value (shortened to “Activity against FnCpf1”) on FnCpf1 was “active in Fncpf1”. For the same compound, the “Activity against Nde1 in gel cleavage assay” value (“Activity against Nde1” for short) in assay [1] was “not Nde1”.
On to `CCc1cccc(-n2nnnc2N2CCN(C(=O)Nc3ccc(C)cc3C)CC2)c1` [Compound L378-0355], for which, at FnCpf1, the “Activity against FnCpf1” value is reported as “active in Fncpf1”. For the same compound, the “Activity against Nde1” value in assay [1] was “not Nde1”.
As to `CCc1cccc(-n2nnnc2N2CCN(C(=O)Nc3ccc(Br)c(C)c3)CC2)c1` [Compound L378-0372], on FnCpf1, the “Activity against FnCpf1” value was “active in Fncpf1”. In addition, the “Activity against Nde1” value in assay [1] was “not Nde1”.
In turn, `O=C(CCCCC1SC[C@H]2NC(=O)N[C@@H]12)NCCOCCOCCOCCC(=O)NCCOc1ccc(S(=O)(=O)CCC(=O)Nc2nc(-c3ccncc3)cs2)cc1` (stereo partly shown) [biotin-BRD7586] registered a Kd at SpCas9:gRNA complex [2] of 520 nM.
Take `[N-]=[N+]=NCCOCCOCCOCCNC(=O)CCCC[C@@H]1SC[C@@H]2NC(=O)N[C@@H]21` [biotin-PEG3-azide]: the “Binding in BLI” value at SpCas9:gRNA complex [3] is “No detectable binding”.
On to `C#CCCC1(CCOc2ccc(S(=O)(=O)CCC(=O)Nc3nc(-c4ccncc4)cs3)cc2)N=N1` [diazirine-BRD7586], for which the “Photo-crosslinking to SpCas9” value at SpCas9:gRNA was “successful covalent conjugation of the probe to SpCas9”. Also, the “Inhibition of SpCas9 in cells by probe” value at SpCas9 is listed as “inhibited SpCas9 in cells”.
